≈ marks a conversion by molar mass, not a printed value.
What was measured:
E. faecalis VSE 1 = test: MIC, broth microdilution, vancomycin-sensitive E. faecalis (VSE 1); format: cell-based, Enterococcus faecalis; settings: for MIC: Enterococcus faecalis VSE 1 (vancomycin-sensitive), read-out: MIC; for MIC-fold improvement vs. vancomycin: VSE 1, ratio of MIC of vancomycin and MIC of analogue
Outline: (§1)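 Following CLSI antimicrobial susceptibility standards, organisms were tested by broth microdilution. Controls comprised ultrapure water plus broth left uninoculated. For a single condition, 10 μM vancomycin (final) accompanied the analog or control agent.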

E. faecalis VRE 6 = test: MIC, broth microdilution, vancomycin-resistant E. faecalis VRE 6 (VanA); format: cell-based, Enterococcus faecalis; settings: for MIC: Enterococcus faecalis VRE 6 (vancomycin-resistant), read-out: MIC; for MIC-fold improvement vs. vancomycin: VRE 6, ratio of MIC of vancomycin and MIC of analogue
Outline: as §1

E. faecalis VRE 53 = test: MIC, broth microdilution, vancomycin-resistant E. faecalis VRE 53 (VanA); format: cell-based, Enterococcus faecalis; settings: for MIC: Enterococcus faecalis VRE 53 (vancomycin-resistant), read-out: MIC; for MIC-fold improvement vs. vancomycin: VRE 53, ratio of MIC of vancomycin and MIC of analogue
Outline: as §1

E. faecalis VRE 29 = test: MIC, broth microdilution, vancomycin-resistant E. faecalis VRE 29 (VanA); format: cell-based, Enterococcus faecalis; settings: for MIC: Enterococcus faecalis VRE 29 (vancomycin-resistant), read-out: MIC; for MIC-fold improvement vs. vancomycin: VRE 29, ratio of MIC of vancomycin and MIC of analogue
Outline: as §1

E. faecalis VRE 37 = test: MIC, broth microdilution, vancomycin-resistant E. faecalis VRE 37 (VanA); format: cell-based, Enterococcus faecalis; settings: for MIC: Enterococcus faecalis VRE 37 (vancomycin-resistant), read-out: MIC; for MIC-fold improvement vs. vancomycin: VRE 37, ratio of MIC of vancomycin and MIC of analogue
Outline: as §1

[1] = system: Murine leukemia (L1210) cells; test: Cytostatic activity, L1210 cell proliferation; format: cell-based; settings: mean ± SD of three experiments; highest concentration tested 250 µM; 2 days; read-out: Toxicity (IC50) L1210
Outline: (§2)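 Readout: Coulter cell number after drug exposure at 37°C. Durations differ by line (L1210 2 days; CEM 3 days; HeLa 4 days). Stock suspension 300,000–500,000 cells/mL, diluted by mixing with compound. Endpoint: IC50 vs negative control.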

[2] = system: human T-lymphocyte (CEM) cells; test: Cytostatic activity, CEM cell proliferation; format: cell-based; settings: mean ± SD of three experiments; highest concentration tested 250 µM; 3 days; read-out: Toxicity (IC50) CEM
Outline: as §2

[3] = system: human cervix carcinoma (HeLa) cells; test: Cytostatic activity, HeLa cell proliferation; format: cell-based; settings: mean ± SD of three experiments; highest concentration tested 250 µM; 4 days; read-out: Toxicity (IC50) HeLa
Outline: as §2

[4] = system: L1210, CEM and HeLa cell lines; test: Cytostatic activity, average or summary over L1210, CEM and HeLa; format: cell-based; settings: average of L1210, CEM and HeLa; read-out: Toxicity (IC50) Average
Outline: as §2

[5] = system: S. aureus VSSA (ATCC 6538); test: MIC, broth microdilution, vancomycin-sensitive S. aureus (VSSA/MSSA, ATCC 6538); format: cell-based, Staphylococcus aureus; settings: for MIC: Staphylococcus aureus VSSA, read-out: MIC; for MIC-fold improvement vs. vancomycin: VSSA, ratio of MIC of vancomycin and MIC of analogue
Outline: as §1

S. aureus VISA/HIP5827 = test: MIC, broth microdilution, vancomycin-intermediate S. aureus VISA HIP5827; format: cell-based, Staphylococcus aureus; settings: for MIC: Staphylococcus aureus VISA/HIP5827, read-out: MIC; for MIC-fold improvement vs. vancomycin: VISA/HIP5827, ratio of MIC of vancomycin and MIC of analogue
Outline: as §1

S. aureus VRSA = test: MIC, broth microdilution, vancomycin-resistant S. aureus (VRSA); format: cell-based, Staphylococcus aureus; settings: for MIC: Staphylococcus aureus VRSA, read-out: MIC; for MIC-fold improvement vs. vancomycin: VRSA, ratio of MIC of vancomycin and MIC of analogue
Outline: as §1

MRSA KS2 = test: MIC, broth microdilution, MRSA KS2; format: cell-based, Staphylococcus aureus; settings: for MIC-fold improvement vs. vancomycin: MRSA KS2, ratio of MIC of vancomycin and MIC of analogue; for MIC: Staphylococcus aureus MRSA KS2, read-out: MIC
Outline: as §1

MRSA KS6 = test: MIC, broth microdilution, MRSA KS6; format: cell-based, Staphylococcus aureus; settings: for MIC-fold improvement vs. vancomycin: MRSA KS6, ratio of MIC of vancomycin and MIC of analogue; for MIC: Staphylococcus aureus MRSA KS6, read-out: MIC
Outline: as §1

MRSA KS89 = test: MIC, broth microdilution, MRSA KS89; format: cell-based, Staphylococcus aureus; settings: for MIC-fold improvement vs. vancomycin: MRSA KS8, ratio of MIC of vancomycin and MIC of analogue; for MIC: Staphylococcus aureus MRSA KS8, read-out: MIC
Outline: as §1

MRSA KS1 = test: MIC, broth microdilution, MRSA KS1; format: cell-based, Staphylococcus aureus; settings: for MIC-fold improvement vs. vancomycin: MRSA KS1, ratio of MIC of vancomycin and MIC of analogue; for MIC: Staphylococcus aureus MRSA KS1, read-out: MIC
Outline: as §1

[6] = system: Clostridium difficile ATJ ribotype 014/20; test: MIC, plate drop assay, C. difficile ATJ ribotype 014/20; format: cell-based; settings: for MIC-fold improvement vs. vancomycin: C. difficile ATJ ribotype 014/20
Method: (§3) Bacterial lawns of both C. difficile strains were prepared by adding 0.5 mL overnight culture to 8 mL sloppy BHI agar (0.4% agar) supplemented with 1.5 g/L CaCl2⋅2H2O and 81.2 g/L MgCl2⋅6H2O, and pouring the mixture into Petri plates. A twofold dilution series of the selected vancomycin analogs, vancomycin ([…]) and daptomycin (25 μM) was spotted (10 μL) on the bacterial lawn. Spots were air-dried and the plates were incubated overnight at 37°C in an anaerobic cabinet. Ultrapure water was included as negative control. The assay was performed in triplicate. Inhibition was observed by cleared spots.

[7] = system: Clostridium difficile AIU ribotype 027; test: MIC, plate drop assay, C. difficile AIU ribotype 027; format: cell-based; settings: for MIC-fold improvement vs. vancomycin: C. difficile AIU ribotype 027
Method: as §3

Compound | MIC (E. faecalis VSE 1) [µM] | MIC-fold improvement vs. vancomycin (E. faecalis VSE 1) | MIC (E. faecalis VRE 6) [µM] | MIC-fold improvement vs. vancomycin (E. faecalis VRE 6) | MIC (E. faecalis VRE 53) [µM] | MIC-fold improvement vs. vancomycin (E. faecalis VRE 53) | MIC (E. faecalis VRE 29) [µM] | MIC-fold improvement vs. vancomycin (E. faecalis VRE 29) | MIC (E. faecalis VRE 37) [µM] | MIC-fold improvement vs. vancomycin (E. faecalis VRE 37) | IC50 [1] [µM] | IC50 [2] [µM] | IC50 [3] [µM] | IC50 [4] [µM] | MIC [5] [µM] | MIC-fold improvement vs. vancomycin [5] | MIC (S. aureus VISA/HIP5827) [µM] | MIC-fold improvement vs. vancomycin (S. aureus VISA/HIP5827) | MIC (S. aureus VRSA) [µM] | MIC-fold improvement vs. vancomycin (S. aureus VRSA) | further results
CN[C@H](CC(C)C)C(=O)N[C@H]1C(=O)N[C@@H](CC(N)=O)C(=O)N[C@H]2C(=O)N[C@H]3C(=O)N[C@H](C(=O)N[C@H](C(=O)NCC(=O)Nc4ccc(Nc5ccccc5)cc4)c4cc(O)cc(O)c4-c4cc3ccc4O)[C@H](O)c3ccc(c(Cl)c3)Oc3cc2cc(c3O[C@@H]2O[C@H](CO)[C@@H](O)[C@H](O)[C@H]2O[C@H]2C[C@](C)(N)[C@H](O)[C@H](C)O2)Oc2ccc(cc2Cl)[C@H]1O [Vanc-43] | 0.39 (≈ 0.652 µg/mL) | 4 | 1.56 (≈ 2.61 µg/mL) | 128 | 25 (≈ 41.8 µg/mL) | 16 | 6.25 (≈ 10.5 µg/mL) | 64 | 6.25 (≈ 10.5 µg/mL) | 64 | > 250 | > 250 | > 250 | > 250 | 0.39 (≈ 0.652 µg/mL) | 2 | 1.56 (≈ 2.61 µg/mL) | 4 | 1.56 (≈ 2.61 µg/mL) | 64 | MIC-fold improvement vs. vancomycin (MRSA KS2): 2; MIC (MRSA KS2): 0.39 µM (≈ 0.652 µg/mL); MIC-fold improvement vs. vancomycin (MRSA KS6): 0.25; MIC (MRSA KS6): 3.13 µM (≈ 5.24 µg/mL); MIC-fold improvement vs. vancomycin (MRSA KS89): 2; MIC (MRSA KS89): 0.39 µM (≈ 0.652 µg/mL); MIC-fold improvement vs. vancomycin (MRSA KS1): 2; MIC (MRSA KS1): 0.39 µM (≈ 0.652 µg/mL); MIC-fold improvement vs. vancomycin [6]: 22; MIC-fold improvement vs. vancomycin [7]: 29
CCCCC#Cc1ccc(/C=C/C(=O)NCCNC(=O)[C@H]2NC(=O)[C@H]3NC(=O)[C@H](NC(=O)[C@@H]4NC(=O)[C@H](CC(N)=O)NC(=O)[C@H](NC(=O)[C@@H](CC(C)C)NC)[C@H](O)c5ccc(c(Cl)c5)Oc5cc4cc(c5O[C@@H]4O[C@H](CO)[C@@H](O)[C@H](O)[C@H]4O[C@H]4C[C@](C)(N)[C@H](O)[C@H](C)O4)Oc4ccc(cc4Cl)[C@H]3O)c3ccc(O)c(c3)-c3c(O)cc(O)cc32)cc1 [Vanc-48] | 0.78 (≈ 1.33 µg/mL) | 2 | 1.56 (≈ 2.65 µg/mL) | 128 | 6.25 (≈ 10.6 µg/mL) | 64 | 3.13 (≈ 5.33 µg/mL) | 128 | 3.13 (≈ 5.33 µg/mL) | 128 | 142 ± 21 | 83 ± 11 | > 250 | 158 | 0.20 (≈ 0.34 µg/mL) | 4 | 1.56 (≈ 2.65 µg/mL) | 4 | 1.56 (≈ 2.65 µg/mL) | 64 | MIC-fold improvement vs. vancomycin (MRSA KS2): 4; MIC (MRSA KS2): 0.20 µM (≈ 0.34 µg/mL); MIC-fold improvement vs. vancomycin (MRSA KS6): 0.25; MIC (MRSA KS6): 3.13 µM (≈ 5.33 µg/mL); MIC-fold improvement vs. vancomycin (MRSA KS89): 2; MIC (MRSA KS89): 0.39 µM (≈ 0.664 µg/mL); MIC-fold improvement vs. vancomycin (MRSA KS1): >8; MIC (MRSA KS1): <0.10 µM; MIC-fold improvement vs. vancomycin [6]: up to 45; MIC ([6]; C. difficile ATJ ribotype 014/20, plate drop assay): 0.78 µM (≈ 1.33 µg/mL); MIC-fold improvement vs. vancomycin ([6]; listed as Vanc- 48): 45; MIC-fold improvement vs. vancomycin [7]: ≤ 58; MIC ([7]; C. difficile AIU ribotype 027, plate drop assay): 0.78 µM (≈ 1.33 µg/mL); MIC-fold improvement vs. vancomycin ([7]; listed as Vanc- 48): 58

From publication PMC6001238, “Iterative Chemical Engineering of Vancomycin Leads to Novel Vancomycin Analogs With a High in Vitro Therapeutic Index” (Frontiers in Microbiology, 2018)
